We go through six compounds from publication PMC3090394 (2011).

Assay [1] concerns oligo II, d-(GGGCGGCCGCCC)2, GC-rich oligonucleotide (DNA, duplex) GGGCGGCCGCCC
The assay is described as follows: ITC. The conditions noted are these: Na+ 100 mM (NaCl), 10 mM HEPES, pH 7.0, 25°C; for binding: 1000 µM ligand titrated into 10 µM DNA, nd.

The subject of assay [2] is oligo I, d-(GGGATATATCCC)2, AT-rich oligonucleotide (DNA, duplex) GGGATATATCCC
The assay is described as follows: ITC. The conditions noted are these: Na+ 100 mM (NaCl), 10 mM HEPES, pH 7.0, 25°C; for Ka: apparent, (K1K2)^1/2 of two binding events; for binding: 1000 µM ligand titrated into 10 µM DNA, nd.

As for `CC[n+]1c(-c2ccccc2)c2cc(N)ccc2c2ccc(N)cc21`, the binding constant in assay [1] (control titration) and in assay [2] (control titration) was ~ 0.7×10^5 M^−1 each time.
With `Cn1cc(NC(=O)c2cc(NC(=O)c3cccn3C)cn2C)cc1C(=O)NCCCn1cc(CN2CCCNCCNCCCNCC2)nn1`, in assay [1], the binding entry is “no”. In assay [2], the Ka was 2.7±0.3 ×10^5 M^−1.
For `Cn1cc(NC(=O)c2cc(NC(=O)c3cccn3C)cn2C)cc1C(=O)NCCCn1cc(CN2CCCNCCNCCCNCC2)nn1.[Cu+2]`, in that order: “no” and 1.2±0.2 ×10^5 M^−1.
In the case of `Cn1cc(NC(=O)c2cc(NC(=O)c3cccn3C)cn2C)cc1C(=O)NCCCn1cc(CN2CCCNCCNCCCNCC2)nn1.[Zn+2]`, the binding entry in assay [1] is “no”. The Ka in assay [2] is on record as 1.5±0.3 ×10^5 M^−1.
As for `Cn1cc(NC(=O)c2cccn2C)cc1C(=O)NCCCn1cc(CN2CCCNCCNCCCNCC2)nn1`, the binding entry in assay [1] and in assay [2] was “no” in each case.
For the compound `Cn1cccc1C(=O)NCCCn1cc(CN2CCCNCCNCCCNCC2)nn1`, the binding result in assay [1] and in assay [2] was “no” in each case.
